Source: the supplement of paper PMC10307832

How the values were obtained:
Assay in all cases: relative viability (nuclei count vs DMSO), 5 days (fraction); higher = more cells survive
BAY61-3606 + Palbociclib = compound: COC1=C(C=C(C=C1)C2=CC3=NC=CN3C(=N2)NC4=C(C=CC=N4)C(=O)N)OC [BAY61-3606] + CC(=O)c1c(C)c2cnc(Nc3ccc(N4CCNCC4)cn3)nc2n(C2CCCC2)c1=O [Palbociclib] (partner 0.5 µM)
Method in brief: (§1)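 Lung cancer cell lines in 1536-well plates got either a single drug or a fixed anchor-drug dose together with five library-drug doses (not always all listed) in √10 steps, by pin tool, on the day after seeding. Nuclei were counted after 5 days, and relative viability is the treated-to-vehicle ratio of nuclei counts. Values are medians of duplicate plates.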

Doxorubicin + Pemetrexed = compound: COc1cccc2c1C(=O)c1c(O)c3c(c(O)c1C2=O)C[C@@](O)(C(=O)CO)C[C@@H]3O[C@H]1C[C@H](N)[C@H](O)[C@H](C)O1 [Doxorubicin] + Nc1nc2[nH]cc(CCc3ccc(C(=O)N[C@@H](CCC(=O)O)C(=O)O)cc3)c2c(=O)[nH]1 [Pemetrexed] (partner 0.2 µM)
Method in brief: as §1

BAY61-3606 + Alpelisib = compound: COC1=C(C=C(C=C1)C2=CC3=NC=CN3C(=N2)NC4=C(C=CC=N4)C(=O)N)OC [BAY61-3606] + Cc1nc(NC(=O)N2CCC[C@H]2C(N)=O)sc1-c1ccnc(C(C)(C)C(F)(F)F)c1 [Alpelisib] (partner 2 µM)
Method in brief: as §1

Doxorubicin + Pictilisib = compound: COc1cccc2c1C(=O)c1c(O)c3c(c(O)c1C2=O)C[C@@](O)(C(=O)CO)C[C@@H]3O[C@H]1C[C@H](N)[C@H](O)[C@H](C)O1 [Doxorubicin] + CS(=O)(=O)N1CCN(Cc2cc3nc(-c4cccc5[nH]ncc45)nc(N4CCOCC4)c3s2)CC1 [Pictilisib] (partner 1 µM)
Method in brief: as §1

Cell Line	relative viability (BAY61-3606 + Palbociclib; first compound 0.02 µM)	relative viability (BAY61-3606 + Palbociclib; first compound 0.06325 µM)	relative viability (BAY61-3606 + Palbociclib; first compound 0.2 µM)	relative viability (BAY61-3606 + Palbociclib; first compound 2 µM)	relative viability (Doxorubicin + Pemetrexed; first compound 0.001 µM)	relative viability (Doxorubicin + Pemetrexed; first compound 0.003162 µM)	relative viability (Doxorubicin + Pemetrexed; first compound 0.01 µM)	relative viability (Doxorubicin + Pemetrexed; first compound 0.03162 µM)	relative viability (Doxorubicin + Pemetrexed; first compound 0.1 µM)	relative viability (BAY61-3606 + Palbociclib; first compound 0.6325 µM)	relative viability (BAY61-3606 + Alpelisib; first compound 0.02 µM)	relative viability (BAY61-3606 + Alpelisib; first compound 0.06325 µM)	relative viability (BAY61-3606 + Alpelisib; first compound 0.2 µM)	relative viability (BAY61-3606 + Alpelisib; first compound 0.6325 µM)	relative viability (BAY61-3606 + Alpelisib; first compound 2 µM)	relative viability (Doxorubicin + Pictilisib; first compound 0.003162 µM)	relative viability (Doxorubicin + Pictilisib; first compound 0.01 µM)	relative viability (Doxorubicin + Pictilisib; first compound 0.03162 µM)	relative viability (Doxorubicin + Pictilisib; first compound 0.1 µM)	relative viability (Doxorubicin + Pictilisib; first compound 0.001 µM)
NCI-H1648	0.251	0.259	0.265	0.276	0.756	0.746	0.724	0.695	0.632											
NCI-H1793	0.27	0.283	0.337	0.474		1.11	0.904	0.617	0.784	0.335	0.817	0.782	0.64	0.882	0.839	0.365	0.417	0.309	0.301	
SK-LU-1	0.356	0.384	0.35	0.289	0.929	1.08	0.903	0.601	0.513	0.357	1.37	0.951	1.04	0.844	0.421	0.562	0.434	0.324	0.303	0.571
HCC-44	0.959	0.941	0.924	1.13	0.625	0.698	0.625	0.685	0.63	0.968	0.866	0.909	0.806	0.997	0.833	0.66	0.58	0.531	0.527	0.722
201T	0.346	0.349	0.341	0.366	0.344	0.325	0.352	0.338	0.351	0.397	1.07	1.03	1.05	1.1	1.09	0.648	0.658	0.719	0.68	0.666
HOP-62		0.465	0.459	0.346	0.356	0.34	0.302	0.25	0.349	0.348	0.901		0.874	0.947	0.64	1.03	0.782	0.553	0.717	0.315
NCI-H838	0.233	0.2	0.22	0.207	0.252	0.228	0.229	0.256	0.236	0.247	0.988	0.963	0.982	1.02	0.888	0.424	0.387	0.227	0.182	0.394
NCI-H2085	0.461	0.487	0.45	0.435	0.904	0.943	0.939	1.1	0.802	0.46	0.994	0.977	1.04	0.949	0.871	0.537	0.512	0.459	0.519	0.509
NCI-H661	0.408	0.378	0.413	0.477	0.894	1.02	0.891	0.754	0.643	0.42	0.754	0.571	0.694	0.57	0.689	0.412	0.378	0.452	0.324	0.399
NCI-H23	0.646	0.484	0.549	0.371	0.515	0.685	0.667	0.661	0.444	0.509	0.776	0.594	0.653	0.829	0.41	0.475	0.462	0.375	0.401	
A-427	0.484	0.521	0.544	0.479	1.08	1.06	0.929	0.746	0.429	0.524	1.11	1.13	1.1	1.07	1.06	0.818	0.723	0.636	0.791	0.664
NCI-H647	0.386	0.358	0.328	0.235	0.211	0.168	0.196	0.127	0.163	0.401	1.02	1.36	0.922	1.03	0.534	0.38	0.46	0.279	0.1	
NCI-H1734	0.361	0.327	0.367	0.214	0.468	0.404	0.398	0.448	0.421	0.351	0.706	0.615	0.653	0.654	0.413	0.498	0.389	0.321	0.267	0.464
NCI-H1915	0.54	0.565	0.537	0.375	0.533	0.529	0.525	0.568	0.502	0.551	1.07	1.08	1.06	1.03	0.93	1.01	0.954	1.06	1.03	0.854
Calu-6											1.04	1.13	0.946	0.956	0.703	0.799	0.516	0.263	0.172	0.919
NCI-H441	0.249	0.264	0.256	0.192	0.253	0.264	0.265	0.229	0.224	0.231	0.734	0.796	0.809	0.848	0.439	0.521	0.404	0.292	0.323	0.434
HCC-366	0.44	0.46	0.324	0.255	0.301	0.18	0.171	0.201	0.161	0.326	0.449	0.343	0.369	0.388	0.212	0.182	0.119	0.162	0.162	0.155
